# Measurements from patent publication US8178506B2, “Oligomeric compounds and compositions for use in modulation of small non-coding RNAs” (Regulus Therapeutics Inc., priority 2003, dated 2012).
# Entries after “also recorded” stand apart in the source; their conditions may differ. In the oligonucleotide strings, read from the 5' end, every base follows the letter of its sugar. An asterisk marks phosphorothioate; unmarked linkages are phosphodiester. Other units and linkages are bracketed, terminal groups are in braces. A string of capitals states the bases alone. e = 2'-O-(2-methoxyethyl) (MOE); [5mC] = 5-methylcytosine; d = 2'-deoxy (DNA)
# Tested on: mir-21 pri-miRNA
# Assay: mir-21 pri-miRNA expression in HeLa cells (real-time RT-PCR)
# Assay type: cell-based, human
# Settings: for mir-21 pri-miRNA expression % UTC: HeLa cells, real-time RT-PCR; for mir-21 pri-miRNA expression % UTC / levels of the mir-21 pri-miRNA molecule: 100 nM; for levels of the mir-21 pri-miRNA molecule: HeLa
# Procedure: In one embodiment, the expression of mir-21 (noted to be expressed at high levels in HeLa cells) was assessed in cells treated with oligomeric compounds. Using the transfection methods previously described, HeLa cells were treated with 100 nM of the uniform 2′-MOE oligomeric compound ISIS Number 327917 (SEQ ID NO: 335) targeting the mir-21 mature miRNA. Total RNA was isolated by lysing cells in 1 mL TRIZOL™ (Invitrogen) using the manufacturer's recommended protocols. […] Real-time RT-PCR analysis was also performed on HeLa cells treated with ISIS 327917 using a primer/probe set specific for the mir-21 pri-miRNA molecule [forward primer=ISIS 339332 ([…]; herein incorporated as SEQ ID NO.: 911), reverse primer-ISIS 339333 (TCGACTGGTGTTGCCATGA; herein incorporated as SEQ ID NO.: 912), and probe=ISIS 339334 ([…]; herein incorporated as SEQ ID NO.: 913)]. Total RNA was quantified using RiboGreen™ RNA quantification reagent (Molecular Probes, Inc. Eugene, Oreg.), expression levels observed for the target were normalized to 5.8S rRNA, and values were expressed relative to an untreated control (UTC).
# Using the real-time RT-PCR methods, the expression levels of the mir-21 pri-miRNA were compared in HeLa cells treated with this nested series of uniform 2′-MOE oligomeric compounds, targeting and spanning the entire length of the mir-21 pri-miRNA. ISIS Number 358768 (SEQ ID NO: 918) targets a region flanking the predicted 5′ Drosha cleavage site in the mir-21 pri-miRNA. ISIS Number 358777 (SEQ ID NO: 927) targets a region spanning the 3′ Drosha cleavage site in the mir-21 pri-miRNA. ISIS 358779 (SEQ ID NO: 929) targets a region flanking the predicted 3′ Drosha cleavage site in the mir-21 pri-miRNA. Additionally, oligomeric compounds ISIS 327917 (SEQ ID NO: 335), a uniform 2′-MOE compound targeting the mature mir-21 miRNA, and ISIS 345382 ([…]; SEQ ID NO: 335), a 5-10-7 phosphorothioate 2′-MOE gapmer targeting mir-21, were tested for comparison. Oligomeric compound ISIS 327863 ([…]; herein incorporated as SEQ ID NO: 936), a phosphorothioate 5-10-52′-MOE gapmer, was used as scrambled control. […] Total RNA was isolated by lysing cells in 1 mL TRIZOL™ (Invitrogen) using the manufacturer's recommended protocols. real-time RT-PCR analysis was performed using the primer/probe set specific for the mir-21 pri-miRNA molecule [forward primer=ISIS 339332 (SEQ ID NO.: 911), reverse primer-ISIS 339333 (SEQ ID NO.: 912), and probe=ISIS 339334 (SEQ ID NO.: 913)]. Total RNA was quantified using RiboGreen™ RNA quantification reagent (Molecular Probes, Inc. Eugene, Oreg.), expression levels observed for each target were normalized to 5.8S rRNA, and values were expressed relative to the untreated control (UTC). Effects on expression of the mir-21 pri-miRNA molecule resulting from treatment of HeLa cells with these uniform 2′-MOE oligomeric compounds is expressed as a percentage of RNA levels in untreated control cells.
Substance,mir-21 pri-miRNA expression % UTC [% UTC],levels of the mir-21 pri-miRNA molecule,other results
"327863 (antisense ACGCTAGCCTAATAGCGAGG; sugars from the 5' end e5 d10 e5, all phosphorothioate, methylation of C not given here) [compound 327863]",107,–,–
358765 (eA*e[5mC]*eA*eA*eG*e[5mC]*eA*eG*eA*e[5mC]*eA*eG*eT*e[5mC]*eA*eG*eG*e[5mC]*eA*eG; antisense) [compound 358765],133,–,–
358766 (eG*eG*eT*eA*eG*eG*e[5mC]*eA*eA*eA*eA*e[5mC]*eA*eA*eG*e[5mC]*eA*eG*eA*e[5mC]; antisense) [compound 358766],142,–,–
358767 (eG*eG*eA*eG*eA*eT*eG*eT*e[5mC]*eA*e[5mC]*eG*eA*eT*eG*eG*eT*eA*eG*eG; antisense) [compound 358767],248,–,–
358769 (eG*eA*eT*eA*eA*eG*e[5mC]*eT*eA*e[5mC]*e[5mC]*e[5mC]*eG*eA*e[5mC]*eA*eA*eG*eG*eT; antisense) [compound 358769],265,–,–
358770 (eA*eG*eT*e[5mC]*eT*eG*eA*eT*eA*eA*eG*e[5mC]*eT*eA*e[5mC]*e[5mC]*e[5mC]*eG*eA*e[5mC]; antisense) [compound 358770],250,–,–
358771 (e[5mC]*eA*eA*e[5mC]*eA*eG*eT*e[5mC]*eA*eA*e[5mC]*eA*eT*e[5mC]*eA*eG*eT*e[5mC]*eT*eG; antisense) [compound 358771],181,–,–
358772 (eG*eA*eG*eA*eT*eT*e[5mC]*eA*eA*e[5mC]*eA*eG*eT*e[5mC]*eA*eA*e[5mC]*eA*eT*e[5mC]; antisense) [compound 358772],245,–,–
358773 (e[5mC]*eT*eG*eG*eT*eG*eT*eT*eG*e[5mC]*e[5mC]*eA*eT*eG*eA*eG*eA*eT*eT*e[5mC]; antisense) [compound 358773],148,–,–
358774 (antisense e[5mC]*eA*eT*e[5mC]*eG*eA*e[5mC]*eT*eG*eG*eT*eG*eT*eT*eG*e[5mC]*e[5mC]*eA*eT*eG) [compound 358774],104,–,–
358775 (antisense eA*e[5mC]*eA*eG*e[5mC]*e[5mC]*e[5mC]*eA*eT*e[5mC]*eG*eA*e[5mC]*eT*eG*eG*eT*eG*eT*eT) [compound 358775],222,–,–
358776 (antisense eT*eG*eT*e[5mC]*eA*eG*eA*e[5mC]*eA*eG*e[5mC]*e[5mC]*e[5mC]*eA*eT*e[5mC]*eG*eA*e[5mC]*eT) [compound 358776],367,–,–
358777 (antisense e[5mC]*e[5mC]*eA*eA*eA*eA*eT*eG*eT*e[5mC]*eA*eG*eA*e[5mC]*eA*eG*e[5mC]*e[5mC]*e[5mC]*eA) [compound 358777],536,–,–
358778 (antisense eG*eA*eT*eA*e[5mC]*e[5mC]*eA*eA*eA*eA*eT*eG*eT*e[5mC]*eA*eG*eA*e[5mC]*eA*eG) [compound 358778],503,–,–
358779 (antisense eG*eG*eT*e[5mC]*eA*eG*eA*eT*eG*eA*eA*eA*eG*eA*eT*eA*e[5mC]*e[5mC]*eA*eA) [compound 358779],646,–,–
358780 (antisense eA*eA*e[5mC]*eA*eT*eT*eG*eG*eA*eT*eA*eT*eG*eG*eA*eT*eG*eG*eT*e[5mC]) [compound 358780],269,–,–
358781 (antisense eT*eA*eA*eT*eG*eT*eT*eT*eA*eA*eA*eT*eG*eA*eG*eA*eA*e[5mC]*eA*eT) [compound 358781],122,–,–
358782 (antisense eA*eA*e[5mC]*eA*eA*eT*eG*eA*eT*eG*e[5mC]*eT*eG*eG*eG*eT*eA*eA*eT*eG) [compound 358782],155,–,–
358783 (antisense eG*eA*eG*eT*eT*eT*e[5mC]*eT*eG*eA*eT*eT*eA*eT*eA*eA*eA*e[5mC]*eA*eA) [compound 358783],133,–,–
358784 (antisense e[5mC]*eG*eA*e[5mC]*eA*eA*eG*eG*eT*eG*eG*eT*eA*e[5mC]*eA*eG*e[5mC]*e[5mC]*eA*eT) [compound 358784],358,–,–
358785 (antisense eG*eA*eA*eA*eG*eA*eT*eA*e[5mC]*e[5mC]*eA*eA*eA*eA*eT*eG*eT*e[5mC]*eA*eG) [compound 358785],257,–,–
ISIS 358767: uniform 2′-MOE PS; targets mir-21 pri-miRNA (antisense eG*eG*eA*eG*eA*eT*eG*eT*e[5mC]*eA*e[5mC]*eG*eA*eT*eG*eG*eT*eA*eG*eG),–,stimulate an increase in levels of the mir-21 pri-miRNA molecule,–
ISIS 358768: uniform 2′-MOE PS; SEQ ID NO: 918; region flanking 5′ Drosha cleavage site of mir-21 pri-miRNA (antisense eA*eG*eG*eT*eG*eG*eT*eA*e[5mC]*eA*eG*e[5mC]*e[5mC]*eA*eT*eG*eG*eA*eG*eA) [uniform 2′-MOE PS; region flanking 5′ Drosha cleavage site of mir-21 pri-miRNA],–,stimulate an increase in levels of the mir-21 pri-miRNA molecule; also recorded: stimulate the greatest increases in expression of the mir-21 pri-miRNA,"mir-21 pri-miRNA levels, dose response (HeLa, 25, 50, 100 and 200 nM): dose-responsive induction of mir-21 pri-miRNA levels"
ISIS 358769: uniform 2′-MOE PS; targets mir-21 pri-miRNA (antisense eG*eA*eT*eA*eA*eG*e[5mC]*eT*eA*e[5mC]*e[5mC]*e[5mC]*eG*eA*e[5mC]*eA*eA*eG*eG*eT),–,stimulate an increase in levels of the mir-21 pri-miRNA molecule,–
ISIS 358770: uniform 2′-MOE PS; targets mir-21 pri-miRNA (antisense eA*eG*eT*e[5mC]*eT*eG*eA*eT*eA*eA*eG*e[5mC]*eT*eA*e[5mC]*e[5mC]*e[5mC]*eG*eA*e[5mC]),–,stimulate an increase in levels of the mir-21 pri-miRNA molecule,–
ISIS 358772: uniform 2′-MOE PS; targets mir-21 pri-miRNA (antisense eG*eA*eG*eA*eT*eT*e[5mC]*eA*eA*e[5mC]*eA*eG*eT*e[5mC]*eA*eA*e[5mC]*eA*eT*e[5mC]),–,stimulate an increase in levels of the mir-21 pri-miRNA molecule,–
ISIS 358775: uniform 2′-MOE PS; targets mir-21 pri-miRNA (antisense eA*e[5mC]*eA*eG*e[5mC]*e[5mC]*e[5mC]*eA*eT*e[5mC]*eG*eA*e[5mC]*eT*eG*eG*eT*eG*eT*eT),–,stimulate an increase in levels of the mir-21 pri-miRNA molecule,–
ISIS 358776: uniform 2′-MOE PS; targets mir-21 pri-miRNA (antisense eT*eG*eT*e[5mC]*eA*eG*eA*e[5mC]*eA*eG*e[5mC]*e[5mC]*e[5mC]*eA*eT*e[5mC]*eG*eA*e[5mC]*eT),–,stimulate an increase in levels of the mir-21 pri-miRNA molecule,–
ISIS 358777: uniform 2′-MOE PS; SEQ ID NO: 927; region spanning 3′ Drosha cleavage site of mir-21 pri-miRNA (antisense e[5mC]*e[5mC]*eA*eA*eA*eA*eT*eG*eT*e[5mC]*eA*eG*eA*e[5mC]*eA*eG*e[5mC]*e[5mC]*e[5mC]*eA) [uniform 2′-MOE PS; region spanning 3′ Drosha cleavage site of mir-21 pri-miRNA],–,stimulate an increase in levels of the mir-21 pri-miRNA molecule; also recorded: stimulate the greatest increases in expression of the mir-21 pri-miRNA,–
ISIS 358778: uniform 2′-MOE PS; targets mir-21 pri-miRNA (antisense eG*eA*eT*eA*e[5mC]*e[5mC]*eA*eA*eA*eA*eT*eG*eT*e[5mC]*eA*eG*eA*e[5mC]*eA*eG),–,stimulate an increase in levels of the mir-21 pri-miRNA molecule,–
